From patent US8415469B2, “Compounds and methods for kinase modulation, and indications therefor” (Plexxikon Inc., priority 2005, dated 2013)

Tests used:
Type in all cases: biochemical
Fms = target: T1, Fms (Homo sapiens, UniProt P07333); test: AlphaScreen kinase assay, Fms; conditions: read-out: IC50, activity toward kinase Fms
T1 construct: purchased Upstate Biotechnology

Ret = target: T2, Ret (Homo sapiens, UniProt P07949); test: AlphaScreen kinase assay, Ret; conditions: read-out: IC50, activity toward kinase Ret
T2 construct: P1378.pET-SF BI-PTP RET H661-R1012 HIS; made in house
T2 sequence (P07949 with tags, fused parts or gaps): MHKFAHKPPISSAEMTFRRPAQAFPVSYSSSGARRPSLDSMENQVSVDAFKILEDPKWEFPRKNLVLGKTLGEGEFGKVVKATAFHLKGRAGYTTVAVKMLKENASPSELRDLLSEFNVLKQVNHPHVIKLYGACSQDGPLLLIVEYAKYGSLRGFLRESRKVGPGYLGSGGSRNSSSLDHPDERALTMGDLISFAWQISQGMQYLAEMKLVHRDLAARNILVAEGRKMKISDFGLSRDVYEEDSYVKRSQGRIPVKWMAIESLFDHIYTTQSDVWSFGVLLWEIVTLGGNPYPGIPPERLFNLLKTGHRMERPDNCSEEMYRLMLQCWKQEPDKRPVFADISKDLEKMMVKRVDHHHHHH

B-Raf = target: T3, B-Raf (Homo sapiens, UniProt P15056); test: AlphaScreen kinase assay, B-Raf; conditions: read-out: IC50, activity toward kinase B-Raf
T3 construct: purchased Upstate Biotechnology
T3 sequence (P15056 whole entry): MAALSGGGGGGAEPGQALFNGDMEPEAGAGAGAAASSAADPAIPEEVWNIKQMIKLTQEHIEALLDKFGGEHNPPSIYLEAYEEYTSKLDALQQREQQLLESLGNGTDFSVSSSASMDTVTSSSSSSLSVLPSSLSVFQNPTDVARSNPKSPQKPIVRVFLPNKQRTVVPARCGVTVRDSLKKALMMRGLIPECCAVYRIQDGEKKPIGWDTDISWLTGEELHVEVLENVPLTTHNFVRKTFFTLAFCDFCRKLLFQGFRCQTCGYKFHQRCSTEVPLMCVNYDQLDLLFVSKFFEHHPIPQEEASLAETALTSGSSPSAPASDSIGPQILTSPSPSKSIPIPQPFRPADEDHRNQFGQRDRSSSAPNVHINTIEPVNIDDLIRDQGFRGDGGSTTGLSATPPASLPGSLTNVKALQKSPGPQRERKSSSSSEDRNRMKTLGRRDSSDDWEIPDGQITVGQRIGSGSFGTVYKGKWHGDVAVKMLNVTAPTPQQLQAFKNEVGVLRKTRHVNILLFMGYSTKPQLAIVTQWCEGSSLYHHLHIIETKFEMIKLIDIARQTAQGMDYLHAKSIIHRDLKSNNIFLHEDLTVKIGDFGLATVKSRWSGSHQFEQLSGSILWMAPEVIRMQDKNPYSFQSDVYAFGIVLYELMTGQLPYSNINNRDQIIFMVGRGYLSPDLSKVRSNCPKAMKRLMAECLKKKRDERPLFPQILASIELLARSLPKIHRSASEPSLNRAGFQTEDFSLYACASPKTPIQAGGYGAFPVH

FGFR1 = target: T4, FGFR1 (Homo sapiens, UniProt P11362, C488A/C584S); test: AlphaScreen kinase assay, FGFR1; conditions: read-out: IC50, activity toward kinase FGFR
T4 construct: P1351.pET N6 BI-PTP FGFR A458-E765-X C488A, C584S; made in house; host or cells: E. coli (PTP1B co-expressed)
T4 sequence (P11362 458-765 C488A/C584S): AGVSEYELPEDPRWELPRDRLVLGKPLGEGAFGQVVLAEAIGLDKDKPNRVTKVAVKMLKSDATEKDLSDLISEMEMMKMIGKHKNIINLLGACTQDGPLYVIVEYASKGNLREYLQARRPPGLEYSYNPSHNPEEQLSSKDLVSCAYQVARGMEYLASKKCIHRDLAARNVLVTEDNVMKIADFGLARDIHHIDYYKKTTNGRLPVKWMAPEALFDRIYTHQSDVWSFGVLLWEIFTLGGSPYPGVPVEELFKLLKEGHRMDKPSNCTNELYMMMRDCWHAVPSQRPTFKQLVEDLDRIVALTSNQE

Kdr = target: T5, Kdr (Homo sapiens, UniProt P35968); test: Z'-Lyte FRET kinase assay (Invitrogen), Kdr; conditions: read-out: IC50, activity toward kinase Kdr
T5 construct: purchased Invitrogen (assay run by Invitrogen)
T5 sequence (P35968 20-1356): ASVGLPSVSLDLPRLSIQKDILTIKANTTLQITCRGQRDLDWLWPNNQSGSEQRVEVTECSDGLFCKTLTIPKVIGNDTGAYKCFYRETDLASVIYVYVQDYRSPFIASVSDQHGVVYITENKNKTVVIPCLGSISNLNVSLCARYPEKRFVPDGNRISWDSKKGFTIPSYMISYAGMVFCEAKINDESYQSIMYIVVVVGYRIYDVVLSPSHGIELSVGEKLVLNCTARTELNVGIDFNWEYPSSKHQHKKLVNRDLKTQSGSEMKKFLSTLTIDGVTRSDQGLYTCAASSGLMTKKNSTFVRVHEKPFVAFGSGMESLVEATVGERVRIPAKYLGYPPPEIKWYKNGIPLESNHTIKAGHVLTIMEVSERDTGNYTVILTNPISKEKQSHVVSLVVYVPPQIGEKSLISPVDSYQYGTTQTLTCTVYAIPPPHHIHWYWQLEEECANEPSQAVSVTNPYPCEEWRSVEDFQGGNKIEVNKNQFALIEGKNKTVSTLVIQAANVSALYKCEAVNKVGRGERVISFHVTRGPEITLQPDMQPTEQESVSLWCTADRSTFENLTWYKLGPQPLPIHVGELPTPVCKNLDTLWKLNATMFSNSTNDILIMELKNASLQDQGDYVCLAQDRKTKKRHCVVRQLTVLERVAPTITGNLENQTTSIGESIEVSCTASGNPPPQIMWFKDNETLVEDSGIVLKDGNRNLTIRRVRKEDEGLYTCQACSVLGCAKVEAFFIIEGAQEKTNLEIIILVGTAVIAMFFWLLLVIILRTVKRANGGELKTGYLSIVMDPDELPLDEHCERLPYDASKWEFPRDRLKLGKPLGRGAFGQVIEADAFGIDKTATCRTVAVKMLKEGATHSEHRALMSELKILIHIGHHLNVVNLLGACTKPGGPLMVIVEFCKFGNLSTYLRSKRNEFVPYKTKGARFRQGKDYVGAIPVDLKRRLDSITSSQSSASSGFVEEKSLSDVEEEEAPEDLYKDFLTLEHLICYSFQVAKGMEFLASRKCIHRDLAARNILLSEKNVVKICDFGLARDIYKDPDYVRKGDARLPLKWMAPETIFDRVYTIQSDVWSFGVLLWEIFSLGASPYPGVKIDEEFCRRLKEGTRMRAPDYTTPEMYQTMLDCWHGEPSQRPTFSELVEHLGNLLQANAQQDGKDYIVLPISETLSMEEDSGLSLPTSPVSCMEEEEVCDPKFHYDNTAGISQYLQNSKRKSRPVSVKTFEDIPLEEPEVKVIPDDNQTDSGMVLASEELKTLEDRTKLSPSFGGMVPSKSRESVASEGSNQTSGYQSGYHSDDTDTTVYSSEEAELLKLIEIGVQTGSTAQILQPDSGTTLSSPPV

Measured: IC50

T1 sequence (P07333 20-972): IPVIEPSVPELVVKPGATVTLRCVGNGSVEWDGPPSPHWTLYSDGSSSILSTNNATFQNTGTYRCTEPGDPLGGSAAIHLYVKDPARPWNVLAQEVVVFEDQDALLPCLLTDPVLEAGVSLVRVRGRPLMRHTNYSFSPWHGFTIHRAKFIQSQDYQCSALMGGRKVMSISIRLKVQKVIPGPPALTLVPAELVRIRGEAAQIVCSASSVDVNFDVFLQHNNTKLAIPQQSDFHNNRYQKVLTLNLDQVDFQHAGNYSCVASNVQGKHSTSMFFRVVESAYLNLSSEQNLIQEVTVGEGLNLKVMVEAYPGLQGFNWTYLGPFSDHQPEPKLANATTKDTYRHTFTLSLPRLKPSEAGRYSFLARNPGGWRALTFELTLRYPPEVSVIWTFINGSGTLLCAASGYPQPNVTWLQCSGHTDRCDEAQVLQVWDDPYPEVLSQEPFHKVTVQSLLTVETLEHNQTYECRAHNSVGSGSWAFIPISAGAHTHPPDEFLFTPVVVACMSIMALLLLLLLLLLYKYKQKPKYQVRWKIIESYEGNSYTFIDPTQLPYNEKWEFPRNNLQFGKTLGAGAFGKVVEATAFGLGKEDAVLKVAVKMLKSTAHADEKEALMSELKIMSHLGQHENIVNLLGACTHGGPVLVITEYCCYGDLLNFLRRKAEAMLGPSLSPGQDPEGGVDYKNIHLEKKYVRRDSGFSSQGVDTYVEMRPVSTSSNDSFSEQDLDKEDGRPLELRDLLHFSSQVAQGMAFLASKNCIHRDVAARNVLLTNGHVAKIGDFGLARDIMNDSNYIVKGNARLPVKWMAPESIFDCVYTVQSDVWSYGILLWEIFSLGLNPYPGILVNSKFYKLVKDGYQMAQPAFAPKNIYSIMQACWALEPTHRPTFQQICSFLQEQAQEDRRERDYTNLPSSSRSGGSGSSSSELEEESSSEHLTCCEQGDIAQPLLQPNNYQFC

Nc1cccc(-c2cnc3[nH]cc(C(=O)c4cc(O)ccc4F)c3c2)c1 [Compound P-0002]
not listed: Kdr
≤ 10 µM: all other assays above

Nc1cccc(-c2cnc3[nH]cc(C(=O)c4cccc(O)c4F)c3c2)c1 [Compound P-0004, [5-(3-amino-phenyl)-1H-pyrrolo[2,3-b]pyridin-3-yl]-(2-fluoro-3-hydroxy-phenyl)methanone]
not listed: Kdr
≤ 10 µM: all other assays above

CS(=O)(=O)c1cccc(-c2cnc3[nH]cc(C(=O)c4cc(O)ccc4F)c3c2)c1 [Compound P-0008, (2-Fluoro-5-hydroxy-phenyl)-[5-(3-methanesulfonyl-phenyl)-1H-pyrrolo[2,3-b]pyridin-3-yl]-methanone]
not listed: Kdr
≤ 10 µM: all other assays above

NC(=O)c1cccc(-c2cnc3[nH]cc(C(=O)c4cccc(O)c4F)c3c2)c1 [Compound P-0034, 3-[3-(2-Fluoro-3-hydroxy-benzoyl)-1H-pyrrolo[2,3-b]pyridin-5-yl]benzamide]
not listed: Kdr
≤ 10 µM: all other assays above

CC(=O)Nc1cccc(-c2cnc3[nH]cc(C(=O)c4cccc(O)c4F)c3c2)c1 [Compound P-0035, N-{3-[3-(2-Fluoro-3-hydroxy-benzoyl)-1H-pyrrolo[2,3-b]pyridin-5-yl]-phenyl}-acetamide]
not listed: Kdr
≤ 10 µM: all other assays above

O=C(c1cccc(O)c1F)c1c[nH]c2ncc(-c3ccccc3)cc12 [Compound P-0036, (2-fluoro-3-hydroxy-phenyl)-(5-phenyl-1H-pyrrolo[2,3-b]pyridin-3-yl)-methanone]
not listed: Kdr
≤ 10 µM: all other assays above

CS(=O)(=O)Nc1cccc(-c2cnc3[nH]cc(C(=O)c4cccc(O)c4F)c3c2)c1 [Compound P-0038, N-{3-[3-(2-Fluoro-3-hydroxy-benzoyl)-1H-pyrrolo[2,3-b]pyridin-5-yl]-phenyl}-methanesulfonamide]
not listed: Kdr
≤ 10 µM: all other assays above

Cc1ccc(S(=O)(=O)NCc2c[nH]c3ncccc23)cc1 [Compound P-0058]
≤ 10 µM: Ret | FGFR1

Fc1cc(F)cc(-c2ccnc3[nH]cc(Sc4ccccn4)c23)c1 [Compound P-0106]
≤ 10 µM: Kdr

Cc1ccc(F)cc1C(=O)c1c[nH]c2nccc(-c3cccc(NS(C)(=O)=O)c3)c12 [Compound P-0124]
≤ 10 µM: Ret

CCCS(=O)(=O)Nc1ccc(F)c(C(=O)c2c[nH]c3ncc(-c4ccccc4)cc23)c1F [Compound P-0636, Propane-1-sulfonic acid [2,4-difluoro-3-(5-phenyl-1H-pyrrolo[2,3-b]pyridine-3-carbonyl)-phenyl]-amide]
not listed: Kdr
≤ 10 µM: all other assays above

CCCC(=O)Nc1ccc(F)c(Cc2c[nH]c3ncc(-c4cccnc4)cc23)c1F [Compound P-1280]
not listed: Ret
≤ 10 µM: all other assays above

OCCOc1ccc(F)c(Cc2c[nH]c3ncc(-c4cccnc4)cc23)c1F [Compound P-1394, 2-[2,4-Difluoro-3-(5-pyridin-3-yl-1H-pyrrolo[2,3-b]pyridin-3-ylmethyl)-phenoxy]-ethanol]
≤ 10 µM: Fms | FGFR1 | Kdr
